Laboratory results published in US20080248511A1, “METHODS TO QUENCH LIGHT FROM OPTICAL REACTIONS” (priority 2007, published 2008).
Where two headings read alike, the source gives them in different places.

Key:
[1] = molecular target: T1, Renilla luciferase (Renilla reniformis, UniProt P27652); experiment: Detergent titration with Tergitol NP-9, digitonin or no lysing agent, Renilla luciferase (Example 4); format: biochemical; conditions: for remaining activity at 0.0005 % / remaining activity at 0.005 % / remaining activity at 0.05 %: read-out: Relative Renilla Luc Intensity
T1 sequence (P27652 1-311): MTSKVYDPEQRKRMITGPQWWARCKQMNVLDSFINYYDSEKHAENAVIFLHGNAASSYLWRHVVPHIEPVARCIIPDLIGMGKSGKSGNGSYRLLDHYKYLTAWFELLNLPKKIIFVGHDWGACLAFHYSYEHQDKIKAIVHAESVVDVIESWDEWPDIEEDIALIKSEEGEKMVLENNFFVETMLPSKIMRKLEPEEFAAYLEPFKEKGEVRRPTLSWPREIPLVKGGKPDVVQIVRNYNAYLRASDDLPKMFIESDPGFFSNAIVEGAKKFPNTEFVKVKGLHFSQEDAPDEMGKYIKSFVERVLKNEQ
Description: Renilla luciferase-mediated luminescence was measured from samples containing 9.6 mM phosphate buffer pH 6.8, 2.7 mM KCl, 137 mM NaCl (in PBS), 0.1% gelatin, 75 nM coelentrazine (Promega) and 10.2 ng/ml Renilla luciferase. Reactions contained either no lysing agent, 0.5% Tergitol NP-9 or 20 μg/ml digitonin. The detergents to be tested were titrated to 0.05%, 0.005% or 0.0005% in the reactions prior to the addition of the Renilla luciferase. Renilla luciferase-mediated luminescence was measured as described herein.

[2] = molecular target: T2, firefly luciferase (Photinus pyralis, UniProt P08659); experiment: Detergent titration with Tergitol NP-9, digitonin or no lysing agent, firefly luciferase (Example 4); format: biochemical; conditions: read-out: Relative Firefly Luc Intensity; for remaining activity at 0.0005 %: 0.0005% detergent; for remaining activity at 0.005 %: 0.0050% detergent; for remaining activity at 0.05 %: 0.0500% detergent
T2 sequence (P08659 whole entry): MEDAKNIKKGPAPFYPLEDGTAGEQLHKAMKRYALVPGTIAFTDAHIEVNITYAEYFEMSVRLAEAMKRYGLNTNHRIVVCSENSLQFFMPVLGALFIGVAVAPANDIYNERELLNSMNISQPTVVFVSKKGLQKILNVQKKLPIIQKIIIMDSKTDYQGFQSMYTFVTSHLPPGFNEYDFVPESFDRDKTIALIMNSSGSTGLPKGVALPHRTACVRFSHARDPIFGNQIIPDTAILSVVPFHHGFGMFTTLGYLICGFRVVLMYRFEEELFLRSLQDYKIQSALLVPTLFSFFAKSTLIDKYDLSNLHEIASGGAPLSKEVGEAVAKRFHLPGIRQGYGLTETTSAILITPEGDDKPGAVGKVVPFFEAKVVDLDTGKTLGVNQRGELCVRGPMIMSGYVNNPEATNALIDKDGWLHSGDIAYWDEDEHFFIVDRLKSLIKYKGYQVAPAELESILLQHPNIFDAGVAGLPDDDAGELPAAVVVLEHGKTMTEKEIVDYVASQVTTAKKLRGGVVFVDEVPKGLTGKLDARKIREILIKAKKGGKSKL
Description: For measurement of firefly luciferase-mediated luminescence, a solution containing 110 mM HEPES pH 7.5, 8 mM MgSO4, 0.05% gelatin, 7.35 ng/ml firefly luciferase (QuantiLum® Luciferase; Promega) and the content of the Steady-Glo Luciferase Substrate (Promega) at the equivalent of 1×, As in the Renilla luciferase reactions, reactions contained either no lysing agent, 0.5% Tergitol NP-9 or 20 μg/ml digitonin. The same detergents were titrated as described above and firefly luciferase-mediated luminescence was measured.

[3] = molecular target: T2, firefly luciferase; experiment: biochemical; conditions: for remaining activity at 0.5 %: read-out: Retained Firefly Luciferase Luminescence (%)
Description: (§1) The retained luminescence for each luciferase was calculated by dividing the luminescence in the presence of the detergent by the luminescence in the absence of the test detergent. The selectivity value for each of the test detergents was determined by dividing the retained firefly luciferase luminescence by the retained Renilla luciferase luminescence.
(§2) A set of detergents (Table 2; Sigma-Aldrich) was added at 0.5% (from a 5% or 10% stock solution) to either Luciferase Assay Reagent (Promega) or Renilla Luciferase Assay Reagent (Promega) and allowed to equilibrate at room temperature.
(§3) The firefly luciferase and Renilla luciferase enzymes were diluted as follows. Firefly luciferase was diluted to 14 ng/ml in Phosphate Buffered Saline (PBS) containing 0.1% of the protein carrier Prionex® (Pentapharm). Renilla luciferase was diluted to 10 ng/ml in 1× Renilla Luciferase Lysis Buffer (Promega) containing 0.1% Prionex®. The Renilla Luciferase Lysis Buffer […] detergent micelles when using the Renilla Luciferase Assay Reagent. In the absence of other detergents, this prevents sequestering of coelenterazine which inhibits Renilla luciferase-mediated luminescence.
(§4) The luciferase reactions were initiated by adding 40 μl of either the firefly or Renilla luciferase enzyme solution to 200 μl of the appropriate reagent solution (firefly luciferase enzyme solution+firefly luciferase reagent solution or Renilla luciferase enzyme solution+Renilla luciferase reagent solution, respectively). The reactions were performed in an opaque white, 96-well plate and luminescence was measured for 0.5 seconds per well using a Turner BioSystems Veritas™ Microplate luminometer. The retained firefly luciferase and Renilla luciferase luminescence, as well as the selectivity values for each detergent, were calculated (Table 2).

[4] = molecular target: T1, Renilla luciferase; experiment: biochemical; format: biochemical; conditions: for remaining activity at 0.5 %: read-out: Retained Renilla Luciferase Luminescence (%)
Description: as §1, §2, §3, §4

[5] = 0.5% detergent in Luciferase Assay Reagent
[6] = 0.5% detergent in Renilla Luciferase Assay Reagent
[7] = retained firefly / retained Renilla, 0.5% detergent

Q: Which “Selective Inhibition (Ff Luc Inh/Ren Luc Inh)” value ([1]; 0.0005% detergent, Dig) does the source give for CCCCCCCCCCCCCC[N+](C)(C)Cc1ccccc1.[Br-] [Benzyldimethyltetradecylammonium bromide] here?
A: 11.0

Q: What about the remaining activity at 0.0005 % ([1]; 0.0005% detergent, Dig) of the same compound?
A: 14%

Q: And the “Selective Inhibition (Ff Luc Inh/Ren Luc Inh)” value ([1]; 0.0005% detergent, Terg)?
A: 1.0

Q: What about the remaining activity at 0.0005 % ([1]; 0.0005% detergent, Terg) of the same compound?
A: 96%

Q: What about the “Selective Inhibition (Ff Luc Inh/Ren Luc Inh)” value ([1]; 0.0005% detergent, Water) of the same compound?
A: 10.2

Q: What about the remaining activity at 0.0005 % ([1]; 0.0005% detergent, Water) of the same compound?
A: 12%

Q: What about the “Selective Inhibition (Ff Luc Inh/Ren Luc Inh)” value ([1]; 0.0050% detergent, Dig) of the same compound?
A: 5067

Q: And the remaining activity at 0.005 % ([1]; 0.0050% detergent, Dig)?
A: 0.03%

Q: What about the “Selective Inhibition (Ff Luc Inh/Ren Luc Inh)” value ([1]; 0.0050% detergent, Terg) of the same compound?
A: 1.3

Q: And the remaining activity at 0.005 % ([1]; 0.0050% detergent, Terg)?
A: 70%

Q: And the “Selective Inhibition (Ff Luc Inh/Ren Luc Inh)” value ([1]; 0.0050% detergent, Water)?
A: 7068

Q: And the remaining activity at 0.005 % ([1]; 0.0050% detergent, Water)?
A: 0.01%

Q: What about the remaining activity at 0.05 % ([1]; 0.0500% (w:v) detergent, Terg (0.5% Tergitol NP-9)) of the same compound?
A: 5%

Q: And the “Selective Inhibition (Ff Luc Inh/Ren Luc Inh)” value ([1]; 0.0500% detergent, Dig)?
A: 60

Q: What about the remaining activity at 0.05 % ([1]; 0.0500% detergent, Dig (20 μg/ml digitonin)) of the same compound?
A: 0.02%

Q: What about the “Selective Inhibition (Ff Luc Inh/Ren Luc Inh)” value ([1]; 0.0500% detergent, Terg) of the same compound?
A: 10

Q: And the “Selective Inhibition (Ff Luc Inh/Ren Luc Inh)” value ([1]; 0.0500% detergent, Water)?
A: 451

Q: And the remaining activity at 0.05 % ([1]; 0.0500% detergent, Water (no lysing agent))?
A: 0.02%

Q: What about the remaining activity at 0.0005 % ([2]; Dig) of the same compound?
A: 155%

Q: And the remaining activity at 0.0005 % ([2]; Terg)?
A: 98%

Q: And the remaining activity at 0.0005 % ([2]; Water)?
A: 126%

Q: And the remaining activity at 0.005 % ([2]; Dig)?
A: 128%

Q: What about the remaining activity at 0.005 % ([2]; Terg) of the same compound?
A: 93%

Q: And the remaining activity at 0.005 % ([2]; Water)?
A: 106%

Q: And the remaining activity at 0.05 % ([2]; Dig (20 μg/ml digitonin))?
A: 1.4%

Q: What about the remaining activity at 0.05 % ([2]; Terg (0.5% Tergitol NP-9)) of the same compound?
A: 45%

Q: And the remaining activity at 0.05 % ([2]; Water (no lysing agent))?
A: 10%

Q: And the remaining activity at 0.5 % [3, 5]?
A: 0.21%

Q: And the remaining activity at 0.5 % [4, 6]?
A: 0.13%

Q: What about the “Selectivity Value” [4, 7] of the same compound?
A: 1.6

Q: How did the remaining activity at 0.5 % [3, 5] turn out when [Br-].c1ccc([P+](c2ccccc2)(c2ccccc2)c2ccccc2)cc1 [Tetraphenylphosphonium bromide] was run?
A: 90.9%

Q: And the remaining activity at 0.5 % [4, 6]?
A: 24.5%

Q: What about the “Selectivity Value” [4, 7] of the same compound?
A: 3.7

Q: What does the source list for s-Acetylthiochloline bromide?
A: Retained Firefly Luciferase Luminescence (%) [3, 5]: 70.97%; Retained Renilla Luciferase Luminescence (%) [4, 6]: 90.65%; Selectivity Value [4, 7]: 0.8

Q: Which results are given for C[C@H](CCC(=O)NCCS(=O)(=O)O)[C@H]1CC[C@H]2[C@@H]3CC[C@@H]4C[C@H](O)CC[C@]4(C)[C@H]3CC[C@]12C [Taurolithocholic acid]?
A: remaining activity at 0.5 % [3, 5]: 81.3%; remaining activity at 0.5 % [4, 6]: 75%; Selectivity Value [4, 7]: 1.1

Q: How did the remaining activity at 0.5 % [3, 5] turn out when C[N+](C)(C)CCCBr.[Br-] [(3-Bromopropyl)trimethylammonium bromide] was run?
A: 72.2%

Q: What about the remaining activity at 0.5 % [4, 6] of the same compound?
A: 71.6%

Q: What about the “Selectivity Value” [4, 7] of the same compound?
A: 1.0

Q: Tergitol NP-9 was tested. Which “Retained Firefly Luciferase Luminescence (%)” value [3, 5] did it give?
A: 79.16%

Q: What about the “Retained Renilla Luciferase Luminescence (%)” value [4] of the same compound?
A: 27.14%

Q: And the “Selectivity Value” [4]?
A: 2.9

Q: For C[N+](C)(C)CCCCCBr.[Br-] [(5-Bromopentyl)trimethylammonium bromide], which remaining activity at 0.5 % [3, 5] is on record?
A: 79.1%

Q: And the remaining activity at 0.5 % [4, 6]?
A: 75%

Q: And the “Selectivity Value” [4, 7]?
A: 1.1

Q: For C[N+](C)(C)CCBr.[Br-] [(2-Bromoethyl)trimethylammonium bromide], which remaining activity at 0.5 % [3] is on record?
A: 91.4%

Q: And the remaining activity at 0.5 % [4]?
A: 78.4%

Q: And the “Selectivity Value” [4, 7]?
A: 1.2

Q: How did the “Retained Firefly Luciferase Luminescence (%)” value [3, 5] turn out when C[C@H](CCC(=O)NCCC[N+](C)(C)CCCS(=O)(=O)[O-])[C@H]1CC[C@H]2[C@@H]3[C@H](O)C[C@@H]4C[C@H](O)CC[C@]4(C)[C@H]3C[C@H](O)[C@]12C [CHAPS] was run?
A: 73.84%

Q: What about the “Retained Renilla Luciferase Luminescence (%)” value [4, 6] of the same compound?
A: 47.29%

Q: And the “Selectivity Value” [4, 7]?
A: 1.6

Q: What does the source list for Benzalkonium?
A: Retained Firefly Luciferase Luminescence (%) [3, 5]: 0.20%; Retained Renilla Luciferase Luminescence (%) [4, 6]: 0.04%; Selectivity Value [4, 7]: 5.0

Q: With C[N+](C)(C)CCCCCC[N+](C)(C)C [Hexamethonium bromide] as the compound, how does the remaining activity at 0.5 % [3, 5] read?
A: 96%

Q: What about the remaining activity at 0.5 % [4, 6] of the same compound?
A: 91%

Q: And the “Selectivity Value” [4, 7]?
A: 1.1

Q: Which “Retained Firefly Luciferase Luminescence (%)” value [3, 5] does the source give for Sodium deoxycholate here?
A: 39.75%

Q: And the “Retained Renilla Luciferase Luminescence (%)” value [4, 6]?
A: 60.64%

Q: What about the “Selectivity Value” [4, 7] of the same compound?
A: 0.7

Q: What does the source list for CCCCCCCC[N+](CCCCCCCC)(CCCCCCCC)CCCCCCCC.[Br-] [Tetraoctylammonium bromide]?
A: remaining activity at 0.5 % [3, 5]: 43.7%; remaining activity at 0.5 % [4, 6]: 43.1%; Selectivity Value [4, 7]: 1.0

Q: With CCCCCCCCCC[N+](C)(C)CCCS(=O)(=O)[O-] [Zwittergent 3-10] as the compound, how does the “Retained Firefly Luciferase Luminescence (%)” value [3, 5] read?
A: 73.92%

Q: And the “Retained Renilla Luciferase Luminescence (%)” value [4, 6]?
A: 33.45%

Q: And the “Selectivity Value” [4, 7]?
A: 2.2

Q: How did the “Retained Firefly Luciferase Luminescence (%)” value [3, 5] turn out when C[C@H](CCC(=O)NCCC[N+](C)(C)CC(O)CS(=O)(=O)[O-])[C@H]1CC[C@H]2[C@@H]3[C@H](O)C[C@@H]4C[C@H](O)CC[C@]4(C)[C@H]3C[C@H](O)[C@]12C (stereo partly drawn) [CHAPSO] was run?
A: 70.07%

Q: What about the “Retained Renilla Luciferase Luminescence (%)” value [4, 6] of the same compound?
A: 52.15%

Q: And the “Selectivity Value” [4, 7]?
A: 1.3

Q: What does the source list for Decamthonium bromide?
A: Retained Firefly Luciferase Luminescence (%) [3, 5]: 85.42%; Retained Renilla Luciferase Luminescence (%) [4, 6]: 76.68%; Selectivity Value [4, 7]: 1.1
